Reference: ChEMBL document CHEMBL5104136, “Discovery of benzodioxane analogues as lead candidates of AIMP2-DX2 inhibitors” (Bioorg Med Chem Lett, 2022)

What was measured:
[1] = target: T1, Aminoacyl tRNA synthase complex-interacting multifunctional protein 2 (Homo sapiens, UniProt Q13155); test: Inhibition of AIMP2-DX2 in human A549 cells by luciferase assay; assay type: cell-based
[2] = target: T1, Aminoacyl tRNA synthase complex-interacting multifunctional protein 2; test: Inhibition of AIMP2-DX2 in human A549 cells by nanoluciferase based assay; assay type: cell-based
Cytochrome P450 3A4 = Cytochrome P450 3A4 (Homo sapiens, UniProt P08684); test: Inhibition of CYP3A4 (unknown origin); assay type: ADME
Cytochrome P450 2C19 = Cytochrome P450 2C19 (Homo sapiens, UniProt P33261); test: Inhibition of CYP2C19 (unknown origin); assay type: ADME
[3] = Plasma stability in mouse assessed as compound remaining measured after 2 hrs; assay type: ADME, cell-free; conditions: read-out: Stability
[4] = Metabolic stability in human assessed as half life; assay type: ADME
NCI-H460 = test: Cytotoxicity against human NCI-H460 cells expressing median levels of AIMP2-DX2 assessed as reduction in cell viability incubated for 96 hrs; assay type: functional, cell-based; conditions: NCI-H460, 96 h
Cytochrome P450 2D6 = Cytochrome P450 2D6 (Homo sapiens, UniProt P10635); test: Inhibition of CYP2D6 (unknown origin); assay type: ADME
Cytochrome P450 2C9 = Cytochrome P450 2C9 (Homo sapiens, UniProt P11712); test: Inhibition of CYP2C9 (unknown origin); assay type: ADME
[5] = Plasma stability in human assessed as compound remaining measured after 2 hrs; assay type: ADME, cell-free; conditions: read-out: Stability
[6] = Metabolic stability in mouse assessed as half life; assay type: ADME
A549 [7] = test: Cytotoxicity against human A549 cells expressing high levels of AIMP2-DX2 assessed as reduction in cell viability incubated for 96 hrs; assay type: functional, cell-based; conditions: A549, 96 h
[8] = Cytotoxicity against human WI-26 cells expressing low levels of AIMP2-DX2 assessed as reduction in cell viability incubated for 96 hrs; assay type: toxicity, cell-based; conditions: wi-26, 96 h
Cytochrome P450 1A2 = target: T2, Cytochrome P450 1A2 (Homo sapiens, UniProt P05177); test: Inhibition of CYP1A2 (unknown origin); assay type: ADME
T2 sequence (P05177 whole entry): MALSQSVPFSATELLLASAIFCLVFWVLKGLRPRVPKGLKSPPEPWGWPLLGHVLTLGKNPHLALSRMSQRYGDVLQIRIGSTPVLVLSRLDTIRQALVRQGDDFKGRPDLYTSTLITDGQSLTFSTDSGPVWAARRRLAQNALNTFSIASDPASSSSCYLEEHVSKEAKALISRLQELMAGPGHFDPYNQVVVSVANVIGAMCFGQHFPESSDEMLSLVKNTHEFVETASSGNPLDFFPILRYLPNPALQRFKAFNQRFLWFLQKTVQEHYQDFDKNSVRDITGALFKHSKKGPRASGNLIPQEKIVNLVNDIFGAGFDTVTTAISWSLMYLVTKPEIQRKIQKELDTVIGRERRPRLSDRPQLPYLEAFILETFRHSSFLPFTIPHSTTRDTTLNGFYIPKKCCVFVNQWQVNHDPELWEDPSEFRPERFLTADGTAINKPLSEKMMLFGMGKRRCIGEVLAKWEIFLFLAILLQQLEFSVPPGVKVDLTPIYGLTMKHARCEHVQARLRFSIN

A549 [9] = test: Inhibition of cell proliferation in human A549 cells; assay type: functional, cell-based

Cytochrome P450 2C19, sequence (P33261 whole entry): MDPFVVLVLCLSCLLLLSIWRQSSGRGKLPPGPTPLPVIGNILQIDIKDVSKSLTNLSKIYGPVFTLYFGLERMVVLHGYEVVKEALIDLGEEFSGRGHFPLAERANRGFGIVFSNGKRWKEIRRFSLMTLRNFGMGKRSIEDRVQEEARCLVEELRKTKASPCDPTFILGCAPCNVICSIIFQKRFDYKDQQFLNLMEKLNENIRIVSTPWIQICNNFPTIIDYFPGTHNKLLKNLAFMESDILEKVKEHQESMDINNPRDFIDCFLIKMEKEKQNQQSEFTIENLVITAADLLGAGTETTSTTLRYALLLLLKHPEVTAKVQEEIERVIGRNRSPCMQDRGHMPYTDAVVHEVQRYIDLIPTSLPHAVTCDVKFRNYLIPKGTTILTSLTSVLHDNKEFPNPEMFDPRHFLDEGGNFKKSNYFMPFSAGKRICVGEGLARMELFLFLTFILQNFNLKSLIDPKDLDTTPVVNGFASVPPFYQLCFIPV
Cytochrome P450 3A4, sequence (P08684 whole entry): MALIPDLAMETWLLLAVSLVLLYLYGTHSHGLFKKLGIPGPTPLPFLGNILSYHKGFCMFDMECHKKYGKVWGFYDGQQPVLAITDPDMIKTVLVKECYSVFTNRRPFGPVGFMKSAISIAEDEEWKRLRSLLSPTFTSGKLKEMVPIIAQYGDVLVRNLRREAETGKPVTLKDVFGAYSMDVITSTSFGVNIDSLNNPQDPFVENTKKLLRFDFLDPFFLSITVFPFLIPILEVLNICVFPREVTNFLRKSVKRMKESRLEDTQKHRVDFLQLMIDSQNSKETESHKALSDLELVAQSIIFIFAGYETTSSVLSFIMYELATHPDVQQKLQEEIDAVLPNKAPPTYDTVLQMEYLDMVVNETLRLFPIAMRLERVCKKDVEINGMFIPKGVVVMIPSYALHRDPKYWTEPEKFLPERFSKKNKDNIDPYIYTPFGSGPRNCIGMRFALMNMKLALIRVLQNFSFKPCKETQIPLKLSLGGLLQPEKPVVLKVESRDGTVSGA
Cytochrome P450 2C9, sequence (P11712 whole entry): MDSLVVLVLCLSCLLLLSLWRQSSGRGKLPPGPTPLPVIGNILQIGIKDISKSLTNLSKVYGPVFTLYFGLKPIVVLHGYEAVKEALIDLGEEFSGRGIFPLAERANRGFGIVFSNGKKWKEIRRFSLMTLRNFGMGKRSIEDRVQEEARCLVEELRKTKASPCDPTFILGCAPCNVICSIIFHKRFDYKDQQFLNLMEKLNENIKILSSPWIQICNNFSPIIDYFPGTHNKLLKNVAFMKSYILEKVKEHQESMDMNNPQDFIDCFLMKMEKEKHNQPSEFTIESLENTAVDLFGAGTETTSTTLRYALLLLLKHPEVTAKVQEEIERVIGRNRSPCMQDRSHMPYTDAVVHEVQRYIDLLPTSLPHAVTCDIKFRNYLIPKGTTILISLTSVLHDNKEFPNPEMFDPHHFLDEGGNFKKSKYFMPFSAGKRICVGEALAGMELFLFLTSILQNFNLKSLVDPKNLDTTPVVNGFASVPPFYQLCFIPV
T1 sequence (Q13155 whole entry, looked up, one chain of several): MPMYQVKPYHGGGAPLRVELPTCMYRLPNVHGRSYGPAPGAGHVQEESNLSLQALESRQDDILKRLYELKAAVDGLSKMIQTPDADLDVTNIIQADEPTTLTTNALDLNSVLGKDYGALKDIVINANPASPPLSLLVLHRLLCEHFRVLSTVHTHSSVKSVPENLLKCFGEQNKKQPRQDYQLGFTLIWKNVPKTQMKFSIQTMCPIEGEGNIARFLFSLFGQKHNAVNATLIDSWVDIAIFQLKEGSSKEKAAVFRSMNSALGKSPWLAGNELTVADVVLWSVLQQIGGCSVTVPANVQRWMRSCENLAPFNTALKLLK
Cytochrome P450 2D6, sequence (P10635 whole entry): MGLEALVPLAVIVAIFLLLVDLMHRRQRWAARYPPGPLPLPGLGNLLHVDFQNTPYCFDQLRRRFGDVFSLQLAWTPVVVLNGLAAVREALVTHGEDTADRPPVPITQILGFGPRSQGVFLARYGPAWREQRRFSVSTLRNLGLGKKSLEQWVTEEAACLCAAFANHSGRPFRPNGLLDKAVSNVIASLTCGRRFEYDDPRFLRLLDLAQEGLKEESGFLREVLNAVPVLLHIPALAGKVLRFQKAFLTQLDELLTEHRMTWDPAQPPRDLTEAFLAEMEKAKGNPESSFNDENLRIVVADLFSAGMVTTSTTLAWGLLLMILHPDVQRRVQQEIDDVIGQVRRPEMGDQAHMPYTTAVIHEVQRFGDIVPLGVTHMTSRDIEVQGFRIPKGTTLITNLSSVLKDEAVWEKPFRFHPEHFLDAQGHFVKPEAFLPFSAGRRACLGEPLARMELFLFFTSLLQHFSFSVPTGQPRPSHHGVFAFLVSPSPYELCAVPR

| SMILES | IC50 [1] [µM] | IC50 [2] [µM] | IC50 (Cytochrome P450 3A4) [µM] | IC50 (Cytochrome P450 2C19) [µM] | remaining at 2 h [3] [%] | half-life [4] [min] | IC50 (Cytochrome P450 2D6) [µM] | IC50 (Cytochrome P450 2C9) [µM] | remaining at 2 h [5] [%] | half-life [6] [min] | IC50 (Cytochrome P450 1A2) [µM] | IC50 (A549 [9]) [µM] | EC50 (NCI-H460) [µM] | EC50 (A549 [7]) [µM] | Activity [8] |
| --- | --- | --- | --- | --- | --- | --- | --- | --- | --- | --- | --- | --- | --- | --- | --- |
| Cc1ccc2c(CC(=O)NCC3COc4ccccc4O3)coc2c1 (stereo unspecified) | 5.68 | – | – | – | – | – | – | – | – | – | – | – | – | – | – |
| Cc1cc2occ(CC(=O)NCC3COc4ccccc4O3)c2cc1C (stereo unspecified) | – | – | – | – | – | – | – | – | – | – | – | – | 0.37 | 1.23 | Non-Toxic |
| Cc1ccc(S(=O)(=O)N[C@@H](CC(C)C)C(=O)N2CCCOCCOCCOCC2)cc1 | – | – | – | – | – | – | – | – | – | – | – | 40.1 | – | – | – |
| Cc1cc(O)ccc1CC(=O)NCC1COc2ccccc2O1 (stereo unspecified) | – | – | – | – | – | – | – | – | – | – | – | – | 0.458 | 1.1 | Non-Toxic |

The next lines start with results.

| IC50 [1] [µM] | IC50 [2] [µM] | IC50 (Cytochrome P450 3A4) [µM] | IC50 (Cytochrome P450 2C19) [µM] | remaining at 2 h [3] [%] | half-life [4] [min] | IC50 (Cytochrome P450 2D6) [µM] | IC50 (Cytochrome P450 2C9) [µM] | remaining at 2 h [5] [%] | half-life [6] [min] | IC50 (Cytochrome P450 1A2) [µM] | IC50 (A549 [9]) [µM] | SMILES | EC50 (NCI-H460) [µM] | EC50 (A549 [7]) [µM] | Activity [8] |
| --- | --- | --- | --- | --- | --- | --- | --- | --- | --- | --- | --- | --- | --- | --- | --- |
| 7.38 | 10.1 | > 50 | > 50 | 47.3 | 49.1 | > 50 | 49.5 | 69.8 | 30.9 | > 50 | – | O=C(O)c1cccc(-c2ccc(/C=N/NC(=O)C3COc4ccccc4O3)o2)c1 (stereo unspecified) | 2.98 | 12 | Non-Toxic |
| – | – | > 50 | 0.228 | 108 | < 2.5 | 12.3 | 0.559 | 98.7 | 1.6 | 1.64 | – | O=C(Cc1ccc(-c2ccccc2)cc1)NCC1COc2ccccc2O1 (stereo unspecified) | 0.15 | 0.69 | Non-Toxic |
| – | – | 36.2 | 0.461 | 94.2 | 2.7 | 29.2 | 3.46 | 97 | 0.7 | 0.417 | – | CCc1ccc(CC(=O)NCC2COc3ccccc3O2)cc1 (stereo unspecified) | 0.204 | 0.688 | Non-Toxic |
